Reference: PMC10672402 (Marine Drugs, 2023)

Tests used:
[1] = biological target: T1, acetylcholinesterase (AChE) (Homo sapiens, UniProt P22303); assay: acetylcholinesterase (AChE) inhibition, modified Ellman method; type: biochemical; conditions: concentration of 50 μg/mL; read-out: inhibition rate against AChE
T1 construct: purchased Solarbio, Beijing, China

[2] = biological target: T2, pancreatic lipase (PL) (Homo sapiens, UniProt P16233); assay: pancreatic lipase (PL) inhibitory assay; type: biochemical
T2 sequence (P16233 17-465): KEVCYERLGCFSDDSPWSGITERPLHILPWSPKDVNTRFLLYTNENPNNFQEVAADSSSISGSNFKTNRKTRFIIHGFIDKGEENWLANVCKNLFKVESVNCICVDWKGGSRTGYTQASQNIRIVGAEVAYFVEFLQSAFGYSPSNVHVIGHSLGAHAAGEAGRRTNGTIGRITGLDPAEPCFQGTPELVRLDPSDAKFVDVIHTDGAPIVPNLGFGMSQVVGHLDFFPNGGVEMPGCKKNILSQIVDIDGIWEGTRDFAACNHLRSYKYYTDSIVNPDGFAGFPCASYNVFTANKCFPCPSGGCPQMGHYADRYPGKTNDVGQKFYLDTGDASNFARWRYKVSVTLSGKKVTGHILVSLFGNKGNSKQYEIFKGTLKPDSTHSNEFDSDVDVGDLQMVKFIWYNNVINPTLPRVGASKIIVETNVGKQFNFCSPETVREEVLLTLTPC

T1 sequence (P22303 32-614, species assumed): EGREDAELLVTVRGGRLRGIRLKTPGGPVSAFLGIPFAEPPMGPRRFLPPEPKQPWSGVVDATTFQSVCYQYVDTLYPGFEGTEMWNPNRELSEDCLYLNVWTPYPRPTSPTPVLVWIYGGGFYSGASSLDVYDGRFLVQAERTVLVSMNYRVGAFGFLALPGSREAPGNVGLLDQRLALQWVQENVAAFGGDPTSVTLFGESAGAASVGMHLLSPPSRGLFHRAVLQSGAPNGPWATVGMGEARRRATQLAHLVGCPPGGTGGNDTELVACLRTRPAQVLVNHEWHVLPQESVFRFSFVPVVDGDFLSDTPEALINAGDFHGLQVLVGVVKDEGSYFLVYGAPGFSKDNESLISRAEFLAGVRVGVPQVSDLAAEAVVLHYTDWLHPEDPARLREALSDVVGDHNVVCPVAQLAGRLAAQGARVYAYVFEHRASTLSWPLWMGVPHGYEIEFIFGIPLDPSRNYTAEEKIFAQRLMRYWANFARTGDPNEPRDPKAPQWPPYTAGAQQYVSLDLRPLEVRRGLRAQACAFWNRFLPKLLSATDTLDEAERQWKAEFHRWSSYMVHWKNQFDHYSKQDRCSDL

| SMILES | inhibition at 50 µg/mL [1] | IC50 [2] |
| --- | --- | --- |
| CCC(C)C1(O)OC(C)C2(OC)C(=O)C(C)=C(OC)C12 (centres unmarked) [Compound 1, asperpentenone B] | 20 to 26% | – |
| C/C=C/C=C/[C@@H]1Cc2c(CC(=O)O)c(O)cc(O)c2O1 [Compound 3, asperpentenone D] | – | 127 µM |
| CCC(C)C(=O)Cc1oc(=O)c(C)c(O)c1C (centres unmarked) [Compound 10, paecilpyrone A] | 20 to 26% | – |
| COC(=O)Cc1cccc(O)c1 [Compound 13, methyl-hydroxyphenylaceta] | 20 to 26% | – |
| COc1cc(/C=C/C(=O)O)ccc1O [Compound 14, trans-ferulic acid] | 20 to 26% | – |
